The results in this text go back to ChEMBL document CHEMBL4145509, “Unravelling the binding mechanism of benproperine with human serum albumin: A docking, fluorometric, and thermodynamic approach” (Eur J Med Chem, 2018).

The target of data set [1] is T1, Albumin (Homo sapiens, UniProt P02768). In words: Binding affinity to human serum albumin assessed as fluorescence lifetime decay 2 at HSA:compound ratio of 1:2 after 1 hr by fluorescence spectroscopic analysis (reference value: 0.584 +/- 0.047 nanoseconds). The settings on record: isolated protein. The class given is ADME.
T1 sequence (P02768 whole entry): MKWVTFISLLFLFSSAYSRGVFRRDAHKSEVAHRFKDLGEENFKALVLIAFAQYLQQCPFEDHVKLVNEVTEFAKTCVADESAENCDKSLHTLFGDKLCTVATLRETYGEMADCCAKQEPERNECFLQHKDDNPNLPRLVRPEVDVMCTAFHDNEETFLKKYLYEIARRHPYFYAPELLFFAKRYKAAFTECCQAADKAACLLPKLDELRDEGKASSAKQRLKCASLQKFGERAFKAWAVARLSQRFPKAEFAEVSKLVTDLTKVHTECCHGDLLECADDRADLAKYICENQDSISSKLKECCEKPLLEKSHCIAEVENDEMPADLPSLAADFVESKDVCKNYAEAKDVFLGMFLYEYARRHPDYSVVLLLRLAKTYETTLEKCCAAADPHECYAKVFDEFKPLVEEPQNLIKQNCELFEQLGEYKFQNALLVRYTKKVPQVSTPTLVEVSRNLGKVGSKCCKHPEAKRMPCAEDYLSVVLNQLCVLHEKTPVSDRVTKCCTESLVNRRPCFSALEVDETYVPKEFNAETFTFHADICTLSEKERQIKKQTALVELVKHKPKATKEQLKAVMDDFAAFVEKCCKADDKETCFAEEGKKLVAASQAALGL
Data set [2] concerns the target T1, Albumin. In words: Binding affinity to human serum albumin assessed as fluorescence lifetime decay 1 at HSA:compound ratio of 1:10 after 1 hr by fluorescence spectroscopic analysis (reference value: 3.917 +/- 0.039 nanoseconds). The settings on record: isolated protein. It is filed as ADME.
Data set [3] deals with T1, Albumin. In words: Induction of conformational changes in human serum albumin assessed as reduction in alpha-helical content at HSA:compound ratio of 1:2 by CD spectral analysis (reference value: 52.6%). Also noted: scale not given: the % may be the effect or the level left.
The target of data set [4] is T1, Albumin. Kind of data set: Binding affinity to human serum albumin assessed as fluorescence lifetime decay 3 at HSA:compound ratio of 1:2 after 1 hr by fluorescence spectroscopic analysis (reference value: 6.876 +/- 0.177 nanoseconds). The class given is ADME. The settings on record: isolated protein.
Data set [5] has as its target T1, Albumin. In words: Binding affinity to human serum albumin assessed as Stern-Volmer quenching constant after 1 hr at 37 degC by fluorescence spectroscopic analysis. It is filed as ADME. The settings on record: isolated protein.
Data set [6] addresses T1, Albumin. In words: Binding affinity to human serum albumin assessed as Stern-Volmer quenching constant after 1 hr at 25 degC by fluorescence spectroscopic analysis. The following applies: isolated protein. The class given is ADME.
Data set [7] deals with T1, Albumin. In words: Binding affinity to human serum albumin assessed as fluorescence lifetime decay 1 at HSA:compound ratio of 1:2 after 1 hr by fluorescence spectroscopic analysis (reference value: 3.917 +/- 0.039 nanoseconds). The following applies: isolated protein. It is filed as ADME.
The target of data set [8] is T1, Albumin. Kind of data set: Binding affinity to human serum albumin assessed as binding constant after 1 hr at 25 degC by fluorescence spectroscopic analysis. It is filed as ADME. The following applies: isolated protein.
Data set [9] has as its target T1, Albumin. Kind of data set: Induction of conformational changes in human serum albumin assessed as reduction in alpha-helical content at HSA:compound ratio of 1:10 by CD spectral analysis (reference value: 52.6%). Also noted: scale not given: the % may be the effect or the level left.
Data set [10] concerns the target T1, Albumin. In words: Binding affinity to human serum albumin assessed as fluorescence lifetime decay 3 at HSA:compound ratio of 1:10 after 1 hr by fluorescence spectroscopic analysis (reference value: 6.876 +/- 0.177 nanoseconds). The class given is ADME. The following applies: isolated protein.
For data set [11], the target named is T1, Albumin. In words: Binding affinity to human serum albumin assessed as binding constant after 1 hr at 37 degC by fluorescence spectroscopic analysis. The following applies: isolated protein. It is filed as ADME.
Data set [12] deals with T1, Albumin. Kind of data set: Binding affinity to human serum albumin assessed as fluorescence lifetime decay 2 at HSA:compound ratio of 1:10 after 1 hr by fluorescence spectroscopic analysis (reference value: 0.584 +/- 0.047 nanoseconds). The class given is ADME. The following applies: isolated protein.
For data set [13], the target named is T1, Albumin. In words: Binding affinity to human serum albumin by isothermal titration microcalorimetry. It is filed as ADME. The settings on record: isolated protein. (In general: Isothermal titration calorimetry measures the heat released or taken up as one component is titrated into another.)

Turning to `CC(COc1ccccc1Cc1ccccc1)N1CCCCC1` (stereo not drawn) [BENPROPERINE], the Time at Albumin [1] was determined as 0.515 nanoseconds; at Albumin [2] it was 3.699 nanoseconds; at Albumin [4], 6.858 nanoseconds; on Albumin [7], 3.852 nanoseconds; on Albumin [10], 6.84 nanoseconds; on Albumin [12], 0.488 nanoseconds. In addition, the figures for the Activity at Albumin [3] and at Albumin [9] were 49.06% and 47.88%, respectively. In addition, the KSV at Albumin [5] is 1.99 ×10⁴ L/mol; on Albumin [6], 2.74 ×10⁴ L/mol. Further, the K at Albumin [8] turned out to be 2.01 ×10⁴ L/mol; at Albumin [11], 1.1 ×10⁴ L/mol; on Albumin [13] it was 1.97 ×10⁴ L/mol.
